Earlier results in US20170369926A1, “NEW MARKERS FOR EARLY DIAGNOSIS OF OVARIAN CANCER, MONITORING DURING THERAPY, AND NEW THERAPY OPTIONS DURING AND AFTER CHEMOTHERAPY” (Bioventures, LLC, priority 2011, published 2017).

Assays:
[1] = biological target: plasma kallikrein (Homo sapiens, UniProt P03952); conditions: from reference (15)
[2] = biological target: hepsin (Homo sapiens, UniProt P05981); conditions: literature statement
Sequence of hepsin (P05981 whole entry): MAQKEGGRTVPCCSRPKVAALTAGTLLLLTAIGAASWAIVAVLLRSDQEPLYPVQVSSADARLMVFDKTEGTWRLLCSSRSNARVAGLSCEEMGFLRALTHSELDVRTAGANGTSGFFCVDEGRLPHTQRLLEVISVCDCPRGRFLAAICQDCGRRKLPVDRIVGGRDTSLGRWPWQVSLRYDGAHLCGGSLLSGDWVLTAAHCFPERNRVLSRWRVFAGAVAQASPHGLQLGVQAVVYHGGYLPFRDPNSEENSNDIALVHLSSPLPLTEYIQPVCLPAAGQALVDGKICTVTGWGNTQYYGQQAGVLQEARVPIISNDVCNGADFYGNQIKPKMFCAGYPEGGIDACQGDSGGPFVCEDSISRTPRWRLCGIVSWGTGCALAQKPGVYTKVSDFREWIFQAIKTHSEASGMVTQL

Sequence of plasma kallikrein (P03952 20-638, species assumed): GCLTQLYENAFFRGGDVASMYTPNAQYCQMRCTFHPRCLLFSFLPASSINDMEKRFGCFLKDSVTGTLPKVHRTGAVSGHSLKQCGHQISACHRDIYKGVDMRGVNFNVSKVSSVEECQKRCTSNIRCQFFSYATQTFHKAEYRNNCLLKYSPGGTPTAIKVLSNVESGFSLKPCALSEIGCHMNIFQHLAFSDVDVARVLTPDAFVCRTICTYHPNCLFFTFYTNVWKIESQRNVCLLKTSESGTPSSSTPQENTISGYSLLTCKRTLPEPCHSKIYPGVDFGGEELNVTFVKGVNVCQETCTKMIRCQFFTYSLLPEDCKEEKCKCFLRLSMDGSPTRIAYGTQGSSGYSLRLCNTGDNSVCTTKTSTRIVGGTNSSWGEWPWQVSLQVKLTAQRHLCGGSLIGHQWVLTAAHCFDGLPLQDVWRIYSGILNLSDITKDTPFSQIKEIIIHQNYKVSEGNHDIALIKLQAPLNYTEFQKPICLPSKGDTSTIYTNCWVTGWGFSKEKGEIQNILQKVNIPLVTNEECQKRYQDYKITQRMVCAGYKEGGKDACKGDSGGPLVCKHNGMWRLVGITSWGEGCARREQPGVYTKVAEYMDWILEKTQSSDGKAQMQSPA

Structure (SMILES): CN(C)C(=O)COC(=O)Cc1ccc(OC(=O)c2ccc(NC(=N)N)cc2)cc1.CS(=O)(=O)O [FOY-305]
- IC50 [1]: 1500 nM
- effective dose by intraperitoneal injection in mice (intraperitoneal injection, reference (5)): 20 mg/kg
- effective dose orally in mice (oral, in food): 0.1 % of the food

Structure (SMILES): CC(C)(Sc1cc(C(C)(C)C)c(O)c(C(C)(C)C)c1)Sc1cc(C(C)(C)C)c(O)c(C(C)(C)C)c1 [Probucol, probucol]
- inhibition of hepsin [2]: inhibits hepsin
